Laboratory results published in publication PMC12420206, “The hypusine pathway in Ixodes ricinus: molecular cloning and validation of deoxyhypusine synthase as a novel target for drug discovery to treat and prevent vector borne diseases” (Frontiers in Cellular and Infection Microbiology, 2025).

Target: T1, DHS (deoxyhypusine synthase) from Ixodes ricinus (Ixodes ricinus, UniProt A0A0K8RJK0)
T1 construct: cDNA from salivary gland RNA; pET-28a(+) N-terminal His tag/thrombin/T7 tag, removal not mentioned; E. coli BL21(DE3), Ni-NTA native purification
T1 sequence (A0A0K8RJK0 1-365): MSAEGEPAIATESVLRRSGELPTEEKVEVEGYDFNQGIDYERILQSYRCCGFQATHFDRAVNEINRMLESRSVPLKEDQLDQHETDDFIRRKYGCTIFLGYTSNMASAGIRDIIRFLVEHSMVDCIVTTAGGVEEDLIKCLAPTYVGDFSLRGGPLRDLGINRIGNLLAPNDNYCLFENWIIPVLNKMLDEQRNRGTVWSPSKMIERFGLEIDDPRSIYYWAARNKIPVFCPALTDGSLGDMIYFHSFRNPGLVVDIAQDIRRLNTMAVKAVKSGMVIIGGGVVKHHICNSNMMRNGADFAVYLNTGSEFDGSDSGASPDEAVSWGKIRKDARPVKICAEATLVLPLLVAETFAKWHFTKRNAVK
Assay: DHS activity assay, GC/MS detection of deoxyhypusine
Format: biochemical
Details: 2.1 mM spermidine, co-substrate human eIF5A precursor 40 μg, 3 mM NAD, glycine NaOH buffer, 37 °C, 1 h; specific activity only

## NCCCCNCCCN [spermidine]
  DHS activity assay, GC/MS detection of deoxyhypusine: No DHS activity was detected in control experiments without either the precursor protein
